From patent US20240140931A1, “TRICYCLIC COMPOUNDS AND USES THEREOF” (HUTCHMED LIMITED, priority 2021, published 2024) come the findings set out here.

One may read the IC50 as the midpoint of a concentration-inhibition curve.

Experiment [1] relates to pERK1/2 (Thr202/Tyr204) in Miapaca2 cells. In words: Assay of intracellular pERK1/2 (Thr202/Tyr204) phosphorylation. Format: cell-based. The following applies: pERK1/2 (Thr202/Tyr204) HTRF. In short, it runs like this: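 Miapaca2 cells treated 2 h at 37 °C with compound (3-fold series; final DMSO 0.5%), then lysed 1 h. pERK1/2 (Thr202/Tyr204) detected by HTRF (665/615 nm ratio) after 2 h at 25 °C; normalized to cell-free lysis buffer and DMSO-treated cell controls; IC50 by four-parameter fit.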
In general terms: TR-FRET usually uses a lanthanide donor and a delayed reading to cut background.

In experiment [2] the target is Human full-length SHP2 recombinant protein (Homo sapiens (Human), UniProt Q06124). In words: Assay of full-length SHP2 phosphatase activity. Type of experiment: biochemical. The settings on record: DiFMUP substrate, with activating peptide. In a few lines:
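Full-length human SHP2 preincubated 30 min at RT with activating peptide and compound (1% DMSO final). DiFMUP substrate added, reaction 60 min at 25 °C in dark. Fluorescence at ex 355/em 460 nm; IC50 from 4-parameter fit against enzyme-free and vehicle controls.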

Chain of Human full-length SHP2 recombinant protein (Q06124 whole entry): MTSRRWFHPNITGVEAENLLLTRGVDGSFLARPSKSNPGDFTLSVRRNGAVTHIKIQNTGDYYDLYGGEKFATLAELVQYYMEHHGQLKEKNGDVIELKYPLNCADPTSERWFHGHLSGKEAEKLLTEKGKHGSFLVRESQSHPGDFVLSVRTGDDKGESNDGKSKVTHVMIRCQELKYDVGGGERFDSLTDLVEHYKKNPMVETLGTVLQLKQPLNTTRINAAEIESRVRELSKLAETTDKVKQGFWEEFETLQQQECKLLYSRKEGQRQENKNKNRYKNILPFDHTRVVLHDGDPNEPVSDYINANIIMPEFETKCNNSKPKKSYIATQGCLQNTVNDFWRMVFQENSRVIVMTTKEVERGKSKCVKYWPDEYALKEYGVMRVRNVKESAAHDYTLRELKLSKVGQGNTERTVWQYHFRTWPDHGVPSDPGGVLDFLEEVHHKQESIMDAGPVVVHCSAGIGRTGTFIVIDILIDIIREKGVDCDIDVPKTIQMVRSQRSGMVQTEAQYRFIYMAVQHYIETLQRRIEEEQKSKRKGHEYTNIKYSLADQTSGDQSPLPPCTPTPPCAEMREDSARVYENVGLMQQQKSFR

Regarding `C#Cc1ccc2c(c1)[C@@H](N)C1(CCN(c3cc(=O)n(-c4ccc(F)c(Cl)c4Cl)c(C)n3)CC1)C2` (atropisomer, axis not shown) [Compound 109], the results for the 50% inhibitory concentration (IC50) in experiment [1] (2 hours) and in experiment [2] were 259 nM and 118 nM, respectively.
With `C#Cc1ccc2c(c1)[C@@H](N)C1(CCN(c3cc(=O)n(-c4ccc(C#N)c(O)c4F)c(C)n3)CC1)C2` [Compound 185], the concentration for half-maximal inhibition (IC50) was above 1000 nM in experiment [1] (Homo sapiens, MIA PaCa-2, 2 h) and 14 nM in experiment [2].
Consider `CC#Cc1ccc2c(c1)[C@@H](N)C1(CCN(c3cnc(Sc4ccnc(N)c4Cl)nn3)CC1)C2` [Compound 234], for which the IC50 in experiment [1] (Homo sapiens, MIA PaCa-2, 2 h) is 153 nM; in experiment [2] it was 2.8 nM.
For the compound `C#Cc1ccc2c(c1)[C@@H](N)C1(CCN(c3cnc(Sc4ccnc(N)n4)c(N)n3)CC1)C2` [Compound 126], the half-inhibitory concentration (IC50) was found to be 42 nM in experiment [1] (Homo sapiens, MIA PaCa-2, 2 h) and 2 nM in experiment [2].
The matching figures for `C#Cc1ccc2c(c1)CC1(CCN(c3ncc(Sc4ccnc(NC5CCC5)c4Cl)c4nccn34)CC1)[C@@H]2N` [Compound 10]: 220 nM and 35 nM.
For `C#Cc1cccc2c1CC1(CCN(c3cc(=O)n(-c4cccc(Cl)c4Cl)c(C)n3)CC1)[C@@H]2N` [Compound 80] the same measures were 125 nM and 4 nM.
With `C#Cc1ccc2c(c1)[C@@H](N)C1(CCN(c3nc(C)n(-c4ccc(F)cc4Cl)c(=O)c3C)CC1)C2` (atropisomer, axis not shown) [Compound 103], the IC50 in experiment [1] (2 hours) is 80 nM; in experiment [2] it was 17 nM.
Regarding `C#Cc1ccc2c(c1)[C@@H](N)C1(CCN(c3cc(=O)n(-c4cccc(OCC)c4Cl)c(C)n3)CC1)C2` [Compound 62], the half-inhibitory concentration (IC50) in experiment [1] (Homo sapiens, MIA PaCa-2, 2 h) is 105 nM; in experiment [2] it was 5 nM.
`C#Cc1ccc2c(c1)[C@@H](N)C1(CCN(c3cc(=O)n(-c4cccc(F)c4Cl)c(C)n3)CC1)C2` [Compound 61]: the IC50 is 78 nM in experiment [1] (Homo sapiens, MIA PaCa-2, 2 h) and 3 nM in experiment [2].
As for `C#Cc1ccc2c(c1)[C@@H](N)C1(CCN(c3nc(C)n(-c4ccc(F)cc4Cl)c(=O)c3C)CC1)C2` [Compound 54], the IC50 in experiment [1] (2 hours) came out at 36 nM; in experiment [2], 3 nM.
In the case of `C#Cc1ccc2c(c1)CC1(CCN(c3nc(N)c(Sc4ccnc(N)c4Cl)c(=O)n3C)CC1)[C@@H]2N` [Compound 5], the concentration for half-maximal inhibition (IC50) was 23 nM in experiment [1] (Homo sapiens, MIA PaCa-2, 2 h) and 2 nM in experiment [2].
For `CC#Cc1ccc2c(c1)[C@@H](N)C1(CCN(c3cc(=O)n(-c4ccc(F)c(F)c4Cl)c(C)n3)CC1)C2` [Compound 214], the IC50 in experiment [1] (2 hours) worked out at 100 nM; in experiment [2], 4 nM.
As to `Cc1nc(N2CCC3(CC2)Cc2ccc(C#CCN(C)C)cc2[C@H]3N)cc(=O)n1-c1cc(Cl)ccc1Cl` [Compound 84], the half-inhibitory concentration (IC50) in experiment [1] (Homo sapiens, MIA PaCa-2, 2 h) is above 1000 nM; in experiment [2], 67 nM.
The matching figures for `COCCSc1ccc2c(c1)[C@@H](N)C1(CCN(c3ncc(Sc4ccnc(N)n4)c4nccn34)CC1)C2` [Compound 98]: 20 nM and 3 nM.
For the compound `C#Cc1ccc2c(c1)[C@@H](N)C1(CCN(c3cc(=O)n(-c4cccc(Cl)c4F)c(C)n3)CC1)C2` (atropisomer, axis not shown) [Compound 65], the IC50 in experiment [1] (2 hours) amounted to 60 nM; in experiment [2], 2 nM.
As to `C#Cc1ccc2c(c1)[C@@H](N)C1(CCN(c3cc(=O)n(-c4c(F)cccc4F)c(C)n3)CC1)C2` [Compound 35], the IC50 in experiment [1] (Homo sapiens, MIA PaCa-2, 2 h) is 274 nM; in experiment [2] it was 17 nM.
The matching figures for `C#Cc1ccc2c(c1)[C@@H](N)C1(CCN(c3ncc(N4CCCc5ncccc54)c(=O)n3C)CC1)C2` [Compound 287]: 140 nM and 12 nM.
The matching figures for `Cc1nc(N2CCC3(CC2)Cc2ccc(C#CCO)cc2[C@H]3N)cc(=O)n1-c1cc(Cl)ccc1Cl` [Compound 85]: 785 nM and 50 nM.
`C#Cc1ccc2c(c1)[C@@H](N)C1(CCN(c3cc(=O)n(-c4ccc(F)c(Cl)c4Cl)c(C)n3)CC1)C2` [Compound 69]: the IC50 is 66 nM in experiment [1] (2 hours) and 5 nM in experiment [2].
For `Nc1nccc(Sc2cnc(N3CCC4(CC3)Cc3ccc(C#CC(=O)N5CCC5)cc3[C@H]4N)cn2)c1Cl` [Compound 303], the IC50 is 9 nM in experiment [1] (Homo sapiens, MIA PaCa-2, 2 h) and 0.5 nM in experiment [2].
The matching figures for `C#Cc1ccc2c(c1)CC1(CCN(c3ncc(Sc4ccnc(NCCOC)c4Cl)c4nccn34)CC1)[C@@H]2N` [Compound 3]: 81 nM and 9 nM.
The matching figures for `CNCC#Cc1ccc2c(c1)[C@@H](N)C1(CCN(c3cc(=O)n(-c4cccc(Cl)c4Cl)c(C)n3)CC1)C2` [Compound 67]: 39 nM and 1 nM.
As to `C#Cc1ccc2c(c1)[C@@H](N)C1(CCN(c3cc(=O)n(-c4cc(F)cc(F)c4)c(C)n3)CC1)C2` [Compound 55], the IC50 in experiment [1] (Homo sapiens, MIA PaCa-2, 2 h) was determined as 388 nM; in experiment [2] it was 26 nM.
For `C#Cc1ccc2c(c1)[C@@H](N)C1(CCN(c3cc(=O)n(-c4ccc(F)c(Cl)c4)c(C)n3)CC1)C2` [Compound 45] the same measures were 261 nM and 11 nM.
The matching figures for `COCC#Cc1ccc2c(c1)[C@@H](N)C1(CCN(c3ncc(Sc4ccnc(N)n4)c4nccn34)CC1)C2` [Compound 100]: 12 nM and 2 nM.
For `C#Cc1ccc2c(c1)[C@@H](N)C1(CCN(c3cc(=O)n(-c4cccc(OC)c4)c(C)n3)CC1)C2` [Compound 43] the same measures were 117 nM and 6 nM.
As for `C#Cc1ccc2c(c1)[C@@H](N)C1(CCN(c3cc(=O)n(-c4ccc(C#N)c(Cl)c4Cl)c(C)n3)CC1)C2` (atropisomer, axis not shown) [Compound 192], the IC50 in experiment [1] (2 hours) and in experiment [2] was above 1000 nM throughout.
On to `CNC(=O)C#Cc1ccc2c(c1)[C@@H](N)C1(CCN(c3ncc(Sc4cccnc4C(F)(F)F)nn3)CC1)C2` [Compound 246], for which the IC50 amounted to 688 nM in experiment [1] (Homo sapiens, MIA PaCa-2, 2 h) and 133 nM in experiment [2].
The matching figures for `C#Cc1ccc2c(c1)[C@@H](N)C1(CCN(c3cc(=O)n(-c4cccc5[nH]ncc45)c(C)n3)CC1)C2` [Compound 39]: 294 nM and 21 nM.
For `C#Cc1ccc2c(c1)[C@@H](N)C1(CCN(c3ncc(Sc4ccnc(N)c4Cl)c4nccn34)CC1)C2` [Compound 8] the same measures were 8 nM and 3 nM.
For `C#Cc1ccc2c(c1)[C@@H](N)C1(CCN(c3nc(C)n(-c4ccc(OCC)cc4Cl)c(=O)c3C)CC1)C2` [Compound 92] the same measures were 117 nM and 11 nM.
For the compound `C#Cc1ccc2c(c1)[C@@H](N)C1(CCN(c3cc(=O)n(-c4ccc(OCC)c(Cl)c4)c(C)n3)CC1)C2` [Compound 46], the IC50 in experiment [1] (Homo sapiens, MIA PaCa-2, 2 h) came out at 648 nM; in experiment [2], 96 nM.
Regarding `C#Cc1ccc2c(c1)[C@@H](N)C1(CCN(c3nc(C)n(-c4cccc(Cl)c4Cl)c(=O)c3C)CC1)C2` (atropisomer, axis not shown) [Compound 48], the IC50 came out at 231 nM in experiment [1] (2 hours) and 63 nM in experiment [2].
Regarding `C#Cc1ccc2c(c1)[C@@H](N)C1(CCN(c3cc(=O)n(-c4ccc(F)c(Cl)c4Cl)c(C)n3)CC1)C2` (atropisomer, axis not shown) [Compound 108], the results for the half-maximal inhibitory concentration (IC50) in experiment [1] (2 hours) and in experiment [2] were 7 nM and 1 nM, respectively.
Regarding `C#Cc1ccc2c(c1)[C@@H](N)C1(CCN(c3cc(=O)n(-c4cccc(C(F)(F)F)c4Cl)c(C)n3)CC1)C2` (atropisomer, axis not shown) [Compound 118], the IC50 in experiment [1] (2 hours) was determined as 40 nM; in experiment [2], 3 nM.
As to `C#Cc1ccc2c(c1)[C@@H](N)C1(CCN(c3nc(C)c(Sc4ccnc(N)c4Cl)n4cncc34)CC1)C2` [Compound 180], the concentration for half-maximal inhibition (IC50) in experiment [1] (Homo sapiens, MIA PaCa-2, 2 h) worked out at 251 nM; in experiment [2], 13 nM.
Turning to `C#Cc1ccc2c(c1)[C@@H](N)C1(CCN(c3cc(=O)n(-c4ccc(F)c(OC)c4F)c(C)n3)CC1)C2` (atropisomer, axis not shown) [Compound 88], the 50% inhibitory concentration (IC50) in experiment [1] (2 hours) was 26 nM; in experiment [2], 0.8 nM.
For `C#Cc1ccc2c(c1)[C@@H](N)C1(CCN(c3cc(=O)n(-c4ccc(F)c(F)c4Cl)c(C)n3)CC1)C2` (atropisomer, axis not shown) [Compound 114] the same measures were 284 nM and 53 nM.
In the case of `C#Cc1ccc2c(c1)[C@@H](N)C1(CCN(c3cc(=O)n(-c4cccc(SC)c4)c(C)n3)CC1)C2` [Compound 53], the IC50 in experiment [1] (Homo sapiens, MIA PaCa-2, 2 h) is 364 nM; in experiment [2], 18 nM.
`C#Cc1ccc2c(c1)[C@@H](N)C1(CCN(c3cc(=O)n(-c4cccc(C(F)(F)F)c4Cl)c(C)n3)CC1)C2` (atropisomer, axis not shown) [Compound 119]: the half-inhibitory concentration (IC50) worked out at 698 nM in experiment [1] (2 hours) and 178 nM in experiment [2].
Take `Cc1c(N2CCC3(CC2)Cc2ccc(C#CCN(C)C)cc2[C@H]3N)nc(C)n(-c2cccc(Cl)c2Cl)c1=O` (atropisomer, axis not shown) [Compound 51]: the figures for the IC50 in experiment [1] (2 hours) and in experiment [2] were 21 nM and 1 nM, respectively.
For the compound `C#Cc1ccc2c(c1)[C@@H](N)C1(CCN(c3ncc(Sc4ccnc(N)n4)c4nccn34)CC1)C2` [Compound 27], the IC50 in experiment [1] (Homo sapiens, MIA PaCa-2, 2 h) amounted to 11 nM; in experiment [2], 1 nM.
For `C#Cc1ccc2c(c1)CC1(CCN(c3cnc(Sc4ccnc(N)c4Cl)c(N)n3)CC1)[C@@H]2N` [Compound 2] the same measures were 23 nM and 5 nM.
For `CC#Cc1ccc2c(c1)[C@@H](N)C1(CCN(c3ncc(Sc4ccnc(N)c4Cl)c(N)n3)CC1)C2` [Compound 215] the same measures were 167 nM and 25 nM.
For `CNCC#Cc1ccc2c(c1)[C@@H](N)C1(CCN(c3ncc(Sc4ccnc(N)c4Cl)c4nccn34)CC1)C2` [Compound 91] the same measures were 17 nM and 0.7 nM.
